Experimental data: publication PMC6278284, “Synthesis of Jacaranone-Derived Nitrogenous Cyclohexadienones and Their Antiproliferative and Antiprotozoal Activities” (Molecules, 2018)
Like-named read-outs stand apart in the source and are kept apart here.

Legend:
[1] = tested on: P. falciparum, strain NF54, erythrocytic stages; experiment: In vitro growth inhibition assay of Plasmodium falciparum NF54 ([3H]-hypoxanthine incorporation); type: cell-based; settings: for IC50: Plasmodium falciparum; for SI (IC50 in L6 cells/IC50 P. falciparum): ratio IC50 L6 / IC50 P. falciparum NF54
Experimental: In vitro activity against erythrocytic stages of P. falciparum was determined by a modified [^3H]-hypoxanthine incorporation assay using the drug-sensitive NF54 strain and the standard drug, chloroquine (Sigma C6628). Briefly, parasite cultures incubated in RPMI 1640 medium with 5% AlbuMAX^TM (without hypoxanthine) were exposed to serial drug dilutions in microtiter plates. After 48 h of incubation at 37 °C in a reduced oxygen atmosphere, 0.5 μCi [^3H]-hypoxanthine was added to each well of the plate. Cultures were incubated for a further 24 h before they were harvested onto glass-fiber filters and washed with distilled water. The radioactivity was counted using a Betaplate^TM liquid scintillation counter (Wallac, Zurich). The results were recorded as counts per minute (CPM) per well at each drug concentration and expressed as a percentage of the untreated controls. IC50 values were calculated from the sigmoidal inhibition curves using Microsoft Excel.

CCRF-CEM leukemia cells = experiment: XTT viability assay, CCRF-CEM; type: cell-based; settings: Homo sapiens, read-out: metabolic active cells in % of control; for viability at 5 µg/mL / viability at 50 µg/mL: 72 h
Experimental: (§1) Human CCRF-CEM leukemia and MDA-MB-231 breast cancer cells lines were kept in RPMI1640 medium (Gibco®, ThermoFisher Scientific Inc., New York, NY, USA), supplemented with 2 mM L-glutamine (Gibco®), 10% heat-inactivated foetal bovine serum (FBS, Gibco®), 100 units/mL Penicillin (PAA), and 100 µg/mL Streptomycin (Gibco®) (1% Pen/Strep). HCT-116 and U251 cells were cultured in high-glucose Dulbecco’s Modified Eagle Medium (DMEM, Gibco®) containing 2 mM L-glutamine, 10% FBS, and 1% Pen/Strep. MRC-5 cells were grown in Minimum Essential Medium (MEM, Gibco®) supplemented with 2 mM L-glutamine, 10% FBS, and 1% Pen/Strep. All cells were kept in a humidified 5% CO2 atmosphere at 37 °C and passaged at 90% confluence.
(§2) A Cell Proliferation Kit II (XTT) was purchased from Sigma-Aldrich and performed as described previously and in accordance with the manufacturer’s protocol. In brief, adherent cell lines were seeded at a density of 50,000 cells/mL or 100,000 cells/mL (MRC-5) in 96 well plates (100 µL, flat bottom) and grown for 24 h before test compounds were added. Suspension cells (CCRF-CEM) were seeded at 100,000 cells/mL and test compounds were added immediately. After 72 h, XTT solution was added for another 90 min or 4 h (CCRF-CEM cells) and absorbance was measured at 490 nm with a reference wave length of 650 nm (Hidex Sense Microplate Reader 425-301, Hidex, Turku, Finland). Results are expressed as a percentage of the vehicle-treated (0.5% DMSO) control cells. Vinblastine served as the positive control (0.01 µg/mL).

U251 glioblastoma cells = experiment: XTT viability assay, U251; type: cell-based; settings: Homo sapiens, U-251, read-out: metabolic active cells in % of control; for viability at 5 µg/mL: U251, 5 µg/mL; for viability at 5 µg/mL / viability at 50 µg/mL: 72 h; for viability at 50 µg/mL: U251, 50 µg/mL
Experimental: as §1, §2

[2] = tested on: T. brucei rhodesiense, strain STIB900 trypomastigote forms; experiment: In vitro growth inhibition assay of Trypanosoma brucei rhodesiense (Alamar Blue); type: cell-based; settings: for IC50: Trypanosoma brucei, 72 h, read-out: T.b.rhod. IC50; for SI (IC50 in L6 cells/IC50 T. b. rhodesiense): ratio IC50 L6 / IC50 T. b. rhodesiense STIB900
Experimental: Trypanosoma brucei rhodesiense, STIB 900 strain, and the standard drug, melarsoprol, were used for the assay. Minimum Essential Medium (50 μL) supplemented with 25 mM HEPES, 1g/L additional glucose, 1% MEM non-essential amino acids (100×), 0.2 mM 2-mercaptoethanol, 1 mM Na-pyruvate, and 15% heat-inactivated horse serum was added to each well of a 96-well microtiter plate. Serial drug dilutions of 11 three-fold dilution steps covering a range from 100 to 0.002 μg/mL were prepared. Then, 4 × 10^3 bloodstream forms of T. b. rhodesiense (STIB 900) in 50 μL were added to each well and the plate was incubated at 37 °C under a 5% CO2 atmosphere for 72 h. 10 μL Alamar Blue (resazurin, 12.5 mg in 100 mL double-distilled water) was then added to each well and incubation continued for a further 2–4 h. Then, the plates were read with a Spectramax Gemini XS microplate fluorometer (Molecular Devices Cooperation, Sunnyvale, CA, USA) using an excitation wavelength of 536 nm and an emission wavelength of 588 nm. The IC50 values were calculated from the sigmoidal inhibition curves using the microplate reader software, Softmax Pro (Molecular Devices Cooperation, Sunnyvale, CA, USA). Melarsoprol was used as the control.

[3] = tested on: MDA-MB-231 breast cancer cells; experiment: XTT viability assay, MDA-MB-231; type: cell-based; settings: Homo sapiens, read-out: metabolic active cells in % of control; for viability at 5 µg/mL: MDA-MB-231, 5 µg/mL; for viability at 5 µg/mL / viability at 50 µg/mL: 72 h; for viability at 50 µg/mL: MDA-MB-231, 50 µg/mL
Experimental: as §1, §2

[4] = tested on: HCT-116 colon cancer cells; experiment: XTT viability assay, HCT-116; type: cell-based; settings: Homo sapiens, read-out: metabolic active cells in % of control; for viability at 5 µg/mL: HCT 116, 5 µg/mL; for viability at 5 µg/mL / viability at 50 µg/mL: 72 h; for viability at 50 µg/mL: HCT 116, 50 µg/mL
Experimental: as §1, §2

[5] = tested on: L6 cells rat skeletal myoblasts; experiment: Cytotoxicity against L6 cells (Alamar Blue); type: cell-based; settings: read-out: Cyt. L6 IC50
Experimental: Assays were performed in 96-well microtiter plates, each well containing 100 μL of RPMI 1640 medium supplemented with 1% L-glutamine (200 mM) and 10% foetal bovine serum, and 4000 L6 cells (a […] cell line derived from rat skeletal myoblasts). Serial drug dilutions of 11 threefold dilution steps covering a range from 100 to 0.002 μg/mL were prepared. After 72 h of incubation, the plates were inspected under an inverted microscope to assure growth of the controls and sterile conditions. 10 μL of Alamar Blue solution was then added to each well and the plates incubated for another 2 h. Then, the plates were read with a Spectramax Gemini XS microplate fluorometer (Molecular Devices Cooperation, Sunnyvale, CA, USA) using an excitation wavelength of 536 nm and an emission wavelength of 588 nm. The IC50 values were calculated by linear regression from the sigmoidal dose inhibition curves using the microplate reader software, Softmax Pro (Molecular Devices Cooperation, Sunnyvale, CA, USA). Podophyllotoxin (Sigma P4405) was used as the control.

[6] = tested on: MRC-5 non-tumorigenic lung fibroblasts; experiment: XTT viability assay, MRC-5; type: cell-based, human; settings: Homo sapiens, MRC5, read-out: metabolic active cells in % of control; for viability at 5 µg/mL: MRC-5, 5 µg/mL; for viability at 5 µg/mL / viability at 50 µg/mL: 72 h; for viability at 50 µg/mL: MRC-5, 50 µg/mL
Experimental: as §1, §2

[7] = strain NF54, erythrocytic stages, read-out: P. falc. IC50
[8] = strain STIB900, trypomastigote forms
[9] = L6 rat skeletal myoblasts, 72 h

| SMILES | viability at 5 µg/mL (CCRF-CEM leukemia cells) | viability at 50 µg/mL (CCRF-CEM leukemia cells) | viability at 5 µg/mL (U251 glioblastoma cells) | viability at 50 µg/mL (U251 glioblastoma cells) | IC50 [1, 7] | SI (IC50 in L6 cells/IC50 P. falciparum) [1] | IC50 [2, 8] | SI (IC50 in L6 cells/IC50 T. b. rhodesiense) [2] | viability at 5 µg/mL [3] | viability at 50 µg/mL [3] | melting point | viability at 5 µg/mL [4] | viability at 50 µg/mL [4] | IC50 [5, 9] | viability at 5 µg/mL [6] | viability at 50 µg/mL [6] | also measured |
| --- | --- | --- | --- | --- | --- | --- | --- | --- | --- | --- | --- | --- | --- | --- | --- | --- | --- |
| CCN(CC)CCCC(C)Nc1ccnc2cc(Cl)ccc12 (centres unmarked) [Chl., Chloroquine, reference compound] | – | – | – | – | – | – | – | – | – | – | – | – | – | – | – | – | IC50 ([1]; NF54, read-out: P. falc. IC50): 0.002 µM |
| O=C1C=CC(O)(CCN2C(=O)c3ccccc3C2=O)C=C1 [Compound 13a, N-[2-(1-Hydroxy-4-oxocyclohexa-2,5-dien-1-yl)ethyl]phthalimide] | 4.42% | 1.15% | 90.7% | 3.21% | 3.78 µM | 1.3 | 1.58 µM | 3.2 | 37.8% | 17.4% | 161 to 162 °C | 55.4% | 1.76% | 5.08 µM | 43.7% | 1.93% | – |
| O=C1C=CC(O)(CCN2C(=O)CCC2=O)C=C1 [Compound 13c, N-[2-(1-Hydroxy-4-oxocyclohexa-2,5-dien-1-yl)ethyl]succinimide] | 79.1% | 2.15% | 93.3% | 0.59% | 8.63 µM | – | 6.93 µM | – | 79.8% | 5.72% | – | 99% | 1.1% | 9.9 µM | 139% | 3.55% | – |
| O=C1C=CC(O)(CCN2C(=O)c3cc(Cl)c(Cl)cc3C2=O)C=C1 [Compound 13d, 4,5-Dichloro-N-[2-(1-hydroxy-4-oxocyclohexa-2,5-dien-1-yl)ethyl]phthalimide] | 13.8% | 3.33% | 72.1% | 1.79% | 3.24 µM | 1.9 | 5.71 µM | 1.1 | 28.6% | 24.8% | 213 to 214 °C | 41.2% | 0.44% | 6.28 µM | 46.4% | 1.01% | – |
| O=C1C=CC(O)(CCN2C(=O)C(Cl)=C(Cl)C2=O)C=C1 [Compound 13e, 3,4-Dichloro-N-[2-(1-hydroxy-4-oxocyclohexa-2,5-dien-1-yl)ethyl]maleimide] | -2.6% | 0.59% | 95.6% | 1.95% | 74.4 µM | 0.1 | 2.26 µM | 4.5 | 81.3% | 9.53% | 168 to 169 °C | 45.3% | -0.43% | 10.3 µM | 97% | 0.38% | – |
| O=C1C=CC(O)(CCN2C(=O)C3CCCCC3C2=O)C=C1 (centres unmarked) [Compound 13h, N-[2-(1-Hydroxy-4-oxocyclohexa-2,5-dien-1-yl)ethyl]hexahydrophthalimide] | 15.7% | 0.69% | 74.9% | 0.18% | 3.04 µM | 1.0 | 1.7 µM | 1.7 | 70.8% | 16.4% | 135 to 136 °C | 44.3% | 0.49% | 2.96 µM | 57.6% | 0.76% | – |
| O=C1C=CC(O)(CCN2C(=O)C3CCCCC3C2O)C=C1 (centres unmarked) [Compound 15, 3-Hydroxy-N-[2-(1-hydroxy-4-oxocyclohexa-2,5-dien-1-yl)ethyl]octahydroisoindole-1-one] | 42.4% | 0.57% | 97.6% | 2.24% | 6.18 µM | 2.0 | 1.52 µM | 8.3 | 105% | 6.05% | 127 to 128 °C | 111% | 1.44% | 12.6 µM | 135% | 4.47% | – |
| Nc1nc(N)nc(Nc2ccc([As]3SCC(CO)S3)cc2)n1 (centres unmarked) [Mel., melarsoprol, reference compound] | – | – | – | – | – | – | – | – | – | – | – | – | – | – | – | – | IC50 [2]: 0.004 µM |
| COc1cc([C@@H]2c3cc4c(cc3[C@H](O)[C@H]3COC(=O)[C@H]23)OCO4)cc(OC)c1OC [Pod., podophyllotoxin, reference compound] | – | – | – | – | – | – | – | – | – | – | – | – | – | – | – | – | IC50 ([5]; Rattus norvegicus, L6, 72 h): 0.007 µM |
| CC[C@]1(O)C[C@@H]2CN(CCc3c([nH]c4ccccc34)[C@@](C(=O)OC)(c3cc4c(cc3OC)N(C)[C@H]3[C@@](O)(C(=O)OC)[C@H](OC(C)=O)[C@]5(CC)C=CCN6CC[C@]43[C@@H]65)C2)C1 [VBN, Vinblastine, reference compound] | – | – | – | – | – | – | – | – | – | – | – | – | – | – | – | – | viability at 0.01 µg/mL (CCRF-CEM leukemia cells; 0.01 µg/mL, positive control): 23.6 ± 7.62%; viability at 0.01 µg/mL (U251 glioblastoma cells; U251, 0.01 µg/mL, positive control): 45.3 ± 3.81%; viability at 0.01 µg/mL ([3]; MDA-MB-231, 0.01 µg/mL, positive control): 42 ± 7.97%; viability at 0.01 µg/mL ([4]; HCT 116, 0.01 µg/mL, positive control): 39 ± 5.1%; viability at 0.01 µg/mL ([6]; MRC-5, 0.01 µg/mL, positive control): 63.8 ± 5.29% |
